# Source: patent US7863281B2, “Bicyclic heterocycles, pharmaceutical compositions containing these compounds, their use and processes for the preparation thereof” (Boehringer Ingelheim Pharma GmbH & Co. KG, priority 2002, dated 2011)
# Target: T1, human EGF-receptor kinase (Homo sapiens, UniProt P00533)
# T1 construct: GST; made in house; host or cells: Sf9 insect cells (Baculovirus expression system)
# Experiment: Inhibition of human EGF-receptor kinase (ELISA, pEY substrate)
# Assay type: biochemical
# Settings: cytoplasmic tyrosine kinase domain (Met664-Ala1186) as GST fusion protein; poly(EY)/bio-pEY substrate; 30 minutes at ambient temperature
# Method: The inhibition of human EGF-receptor kinase was determined using the cytoplasmic tyrosine kinase domain (methionine 664 to alanine 1186 based on the sequence published in Nature 309 (1984), 418). For this the protein was expressed in Sf9 insect cells as GST fusion protein using the Baculovirus expression system.
# The enzyme activity was measured in the presence or absence of the test compounds in serial dilutions. The polymer pEY (4:1) obtained from SIGMA was used as the substrate. Biotinylated pEY (bio-pEY) was added as the tracer substrate. 100 μl of reaction solution contained 10 μl of the inhibitor in 50% DMSO, 20 μl of the substrate solution (200 mM HEPES pH 7.4, 50 mM magnesium acetate, 2.5 mg/ml poly(EY), 5 μg/ml bio-pEY) and 20 μl of enzyme preparation. The enzyme reaction was started by the addition of 50 μl of a 100 μM ATP solution in 10 mM of magnesium chloride. The dilution of the enzyme preparation was adjusted so that the incorporation of phosphate in the bio-pEY was linear in terms of time and quantity of enzyme. The enzyme preparation was diluted in 20 mM HEPES pH 7.4, 1 mM EDTA, 130 mM common salt, 0.05% Triton X-100, 1 mM DTT and 10% glycerol.
# The enzyme assays were carried out at ambient temperature over a period of 30 minutes and ended by the addition of 50 μl of a stopping solution (250 mM EDTA in 20 mM HEPES pH 7.4). 100 μl were placed on a streptavidin-coated microtitre plate and incubated for 60 minutes at ambient temperature. Then the plate was washed with 200 μl of a wash solution (50 mM Tris, 0.05% Tween 20). After the addition of 100 μl of an HRPO-labelled anti-PY antibody (PY20H Anti-PTyr:HRP made by Transduction Laboratories, 250 ng/ml) the preparation was incubated for 60 minutes. Then the microtitre plate was washed three times with 200 μl of wash solution. The samples were then combined with 100 μl of a TMB-peroxidase solution (A:B=1:1, Kirkegaard Perry Laboratories). After 10 minutes the reaction was stopped. The extinction was measured at OD450nm with an ELISA reader. All the results were measured three times. […]
# T1 sequence (P00533 688-1210): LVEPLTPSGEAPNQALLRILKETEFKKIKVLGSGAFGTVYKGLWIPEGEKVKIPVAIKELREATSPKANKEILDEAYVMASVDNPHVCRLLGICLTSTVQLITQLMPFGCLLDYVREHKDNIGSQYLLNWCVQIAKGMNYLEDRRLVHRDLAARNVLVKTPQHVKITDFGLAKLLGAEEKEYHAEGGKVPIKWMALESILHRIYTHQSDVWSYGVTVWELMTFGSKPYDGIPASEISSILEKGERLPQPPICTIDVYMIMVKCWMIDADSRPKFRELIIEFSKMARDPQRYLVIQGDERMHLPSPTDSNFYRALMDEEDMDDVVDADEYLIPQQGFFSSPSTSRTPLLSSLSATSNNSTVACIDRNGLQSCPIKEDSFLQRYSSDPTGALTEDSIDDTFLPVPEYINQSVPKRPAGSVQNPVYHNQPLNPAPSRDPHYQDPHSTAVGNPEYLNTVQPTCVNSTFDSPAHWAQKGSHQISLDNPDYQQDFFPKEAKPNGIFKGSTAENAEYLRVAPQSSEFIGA
row,IC50,SMILES
1,1.5 nM,"O=C(/C=C/CN1C[C@@H]2C[C@H]1CO2)Nc1cc2c(Nc3ccc(F)c(Cl)c3)ncnc2cc1OCC1CC1 [Example 1, 4-[(3-chloro-4-fluoro-phenyl)amino]-6-{[4-((1S,4S)-2-oxa-5-aza-bicyclo[2.2.1]hept-5-yl)-1-oxo-2-buten-1-yl]amino}-7-cyclopropylmethoxy-quinazoline]"
2,0.5 nM,"O=C(/C=C/CN1C[C@H]2C[C@@H]1CO2)Nc1cc2c(Nc3ccc(F)c(Cl)c3)ncnc2cc1O[C@H]1CCOC1 [Example 2(2), 4-[(3-chloro-4-fluoro-phenyl)amino]-6-{[4-((1R,4R)-2-oxa-5-aza-bicyclo[2.2.1]hept-5-yl)-1-oxo-2-buten-1-yl]amino}-7-[(S)-(tetrahydrofuran-3-yl)oxy]-quinazoline]"
3,2 nM,"O=C(/C=C/CN1CC2CCC(C1)O2)Nc1cc2c(Nc3ccc(F)c(Cl)c3)ncnc2cc1O[C@H]1CCOC1 [Example 2(3), 4-[(3-chloro-4-fluoro-phenyl)amino]-6-{[4-(8-oxa-3-aza-bicyclo[3.2.1]oct-3-yl)-1-oxo-2-buten-1-yl]amino}-7-[(S)-(tetrahydrofuran-3-yl)oxy]-quinazoline]"
